Data set [1] in a line: urinary excretion of pyridostigmine in rats. The format is in vivo, rat. Here is the method:
(§1) For animal studies, rats weighing 175-225 g were placed in metabolic cages and deprived of solid food for 14 hours. For urine studies they were hydrated by the administration of 2.5 ml per 100 g of warm water by stomach tube. This was repeated after 1 hour. An 80 μg aliquot of pyridostigmine in 0.2 ml water was injected intramuscularly into a hind limb. Urine free from feces was collected over a period of 24 hours. In blood studies a similar dose was administered intramuscularly. At selected intervals over a period of 1 hour blood specimens were collected from excised hearts.
(§2) The assay was applied to the quantitation of pyridostigmine in urine and plasma of rats following the oral administration of 450 μg of pyridostigmine bromide per kg of body weight. One ml of urine and 1.5 ml of plasma samples were used for an assay. The urinary excretion of pyridostigmine in three rats over a 24-hour period was 60.0 and 65.4% of […]

Data set [2] is described as follows: plasma levels of pyridostigmine in rats. The format is in vivo, rat. Here is the method: as §1, §2
Data set [3] in a line: extraction of pyridostigmine from basic solutions by organic solvents. The format is physicochemical.

SMILES strings stand for the structures.

In the case of `CN(C)C(=O)Oc1ccc[n+](C)c1` [pyridostigmine], the “urinary excretion of pyridostigmine (% of the total dose injected)” value in data set [1] (over a 24-hour period, 450 μg/kg pyridostigmine bromide, 0.45 mg/kg, 1440 min) was 65.4%. For the same compound, in data set [1] (rat, urine, im, 0.08 mg, between 24 and 48 hours, read-out: urinary excretion (% of the total dose injected)), the dose excreted at 48 h was less than 5%. Further, the dose excreted at 24 h in data set [1] (rat, urine, im, 0.45 mg/kg, over a 24-hour period, 450 μg/kg pyridostigmine bromide, read-out: urinary excretion of pyridostigmine (% of the total dose injected)) worked out at 60%. The “initial plasma concentrations relative to that of urine” value in data set [2] (average of three experiments for a single time point) was “about 1/25”. For the same compound, in data set [2] (plasma, im, 0.08 mg, approximately 80 μg per rat, after 7 min), the concentration at 7 min amounted to 250 ng/mL. In addition, the concentration at 1 h in data set [2] (plasma, im, 0.08 mg, approximately 80 μg per rat, within 1 hour) is less than 50 ng/mL. For the same compound, the “extraction from basic solutions by organic solvents of various polarities” value in data set [3] is recorded as “could not extract”.

Values taken from patent US4590166A, “Method for separating and measuring the amount of polar compounds and their metabolites in aqueous solutions” (priority 1983, dated 1986).
